Measured values from ChEMBL document CHEMBL5291721, “A preclinical secondary pharmacology resource illuminates target-adverse drug reaction associations of marketed drugs” (Nat Commun, 2023).

Tests used:
[1] = molecular target: Beta-1 adrenergic receptor (Homo sapiens, UniProt P08588); assay type: functional, cell-based
[2] = molecular target: T1, Peroxisome proliferator-activated receptor gamma (Homo sapiens, UniProt P37231); assay type: functional
T1 sequence (P37231 whole entry): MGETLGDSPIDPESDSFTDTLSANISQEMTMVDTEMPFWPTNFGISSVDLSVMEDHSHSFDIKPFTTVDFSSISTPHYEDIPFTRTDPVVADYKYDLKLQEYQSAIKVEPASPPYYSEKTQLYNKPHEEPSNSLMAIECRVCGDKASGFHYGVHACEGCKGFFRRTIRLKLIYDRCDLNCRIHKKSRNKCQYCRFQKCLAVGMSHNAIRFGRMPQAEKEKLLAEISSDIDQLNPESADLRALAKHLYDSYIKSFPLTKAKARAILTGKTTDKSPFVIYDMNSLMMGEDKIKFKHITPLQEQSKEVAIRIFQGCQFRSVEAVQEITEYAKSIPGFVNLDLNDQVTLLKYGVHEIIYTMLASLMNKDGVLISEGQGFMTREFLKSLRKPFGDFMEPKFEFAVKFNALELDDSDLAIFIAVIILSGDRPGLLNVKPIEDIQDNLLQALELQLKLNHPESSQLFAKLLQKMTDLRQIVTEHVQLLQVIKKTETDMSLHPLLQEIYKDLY

[3] = molecular target: T1, Peroxisome proliferator-activated receptor gamma; assay type: functional; remark: listed apart in the source
[4] = molecular target: Substance-P receptor (Homo sapiens, UniProt P25103)
Substance-P receptor, sequence (P25103 whole entry): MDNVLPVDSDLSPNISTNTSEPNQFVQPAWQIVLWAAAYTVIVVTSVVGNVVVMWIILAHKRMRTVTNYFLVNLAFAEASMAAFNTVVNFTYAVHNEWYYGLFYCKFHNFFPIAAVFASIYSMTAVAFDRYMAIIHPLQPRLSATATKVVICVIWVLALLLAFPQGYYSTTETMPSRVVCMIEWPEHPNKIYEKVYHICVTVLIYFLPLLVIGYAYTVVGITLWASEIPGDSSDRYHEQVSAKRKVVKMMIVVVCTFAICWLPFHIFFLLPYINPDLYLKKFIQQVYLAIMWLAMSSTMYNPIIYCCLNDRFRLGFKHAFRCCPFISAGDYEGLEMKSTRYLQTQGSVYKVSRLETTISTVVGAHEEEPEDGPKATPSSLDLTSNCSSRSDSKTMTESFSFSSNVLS

[5] = molecular target: T2, D(4) dopamine receptor (Homo sapiens, UniProt P21917)
T2 sequence (P21917 whole entry): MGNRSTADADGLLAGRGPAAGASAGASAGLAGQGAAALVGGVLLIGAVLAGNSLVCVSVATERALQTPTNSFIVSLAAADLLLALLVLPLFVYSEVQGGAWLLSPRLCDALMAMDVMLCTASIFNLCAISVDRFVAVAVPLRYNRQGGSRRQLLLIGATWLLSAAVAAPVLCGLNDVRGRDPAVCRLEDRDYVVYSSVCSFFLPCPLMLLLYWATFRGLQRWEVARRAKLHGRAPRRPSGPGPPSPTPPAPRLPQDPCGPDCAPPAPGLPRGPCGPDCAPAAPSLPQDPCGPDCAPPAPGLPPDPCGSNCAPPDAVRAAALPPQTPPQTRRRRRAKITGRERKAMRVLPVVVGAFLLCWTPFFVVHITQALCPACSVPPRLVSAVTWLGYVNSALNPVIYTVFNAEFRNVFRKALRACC

[6] = molecular target: 5-hydroxytryptamine receptor 2A (Homo sapiens, UniProt P28223)
5-hydroxytryptamine receptor 2A, sequence (P28223 whole entry): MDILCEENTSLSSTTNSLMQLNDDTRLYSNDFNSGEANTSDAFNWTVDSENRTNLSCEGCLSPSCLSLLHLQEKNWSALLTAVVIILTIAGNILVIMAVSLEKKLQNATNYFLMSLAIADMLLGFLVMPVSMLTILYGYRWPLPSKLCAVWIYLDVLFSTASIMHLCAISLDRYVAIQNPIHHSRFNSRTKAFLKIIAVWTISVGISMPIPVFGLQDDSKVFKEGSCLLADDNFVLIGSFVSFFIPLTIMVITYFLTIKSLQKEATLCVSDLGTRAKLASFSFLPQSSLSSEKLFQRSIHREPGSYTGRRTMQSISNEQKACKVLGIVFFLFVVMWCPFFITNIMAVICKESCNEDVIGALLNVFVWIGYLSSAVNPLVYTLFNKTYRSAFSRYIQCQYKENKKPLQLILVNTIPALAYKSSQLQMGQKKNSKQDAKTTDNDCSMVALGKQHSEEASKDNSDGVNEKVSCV

[7] = molecular target: Hydroxycarboxylic acid receptor 2 (Homo sapiens, UniProt Q8TDS4)
Hydroxycarboxylic acid receptor 2, sequence (Q8TDS4 whole entry): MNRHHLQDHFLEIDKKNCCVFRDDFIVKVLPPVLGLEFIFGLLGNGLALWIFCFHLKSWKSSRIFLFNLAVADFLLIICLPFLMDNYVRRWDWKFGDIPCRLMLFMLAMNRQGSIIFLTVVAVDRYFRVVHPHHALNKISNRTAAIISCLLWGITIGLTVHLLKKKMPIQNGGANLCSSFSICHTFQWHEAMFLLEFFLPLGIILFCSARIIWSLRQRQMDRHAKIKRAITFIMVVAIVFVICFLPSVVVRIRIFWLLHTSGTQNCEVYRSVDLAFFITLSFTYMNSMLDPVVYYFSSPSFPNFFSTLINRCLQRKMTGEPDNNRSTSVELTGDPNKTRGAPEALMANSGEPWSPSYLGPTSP

[8] = molecular target: Gamma-aminobutyric acid type B receptor subunit 1 (Homo sapiens, UniProt Q9UBS5)
Gamma-aminobutyric acid type B receptor subunit 1, sequence (Q9UBS5 whole entry): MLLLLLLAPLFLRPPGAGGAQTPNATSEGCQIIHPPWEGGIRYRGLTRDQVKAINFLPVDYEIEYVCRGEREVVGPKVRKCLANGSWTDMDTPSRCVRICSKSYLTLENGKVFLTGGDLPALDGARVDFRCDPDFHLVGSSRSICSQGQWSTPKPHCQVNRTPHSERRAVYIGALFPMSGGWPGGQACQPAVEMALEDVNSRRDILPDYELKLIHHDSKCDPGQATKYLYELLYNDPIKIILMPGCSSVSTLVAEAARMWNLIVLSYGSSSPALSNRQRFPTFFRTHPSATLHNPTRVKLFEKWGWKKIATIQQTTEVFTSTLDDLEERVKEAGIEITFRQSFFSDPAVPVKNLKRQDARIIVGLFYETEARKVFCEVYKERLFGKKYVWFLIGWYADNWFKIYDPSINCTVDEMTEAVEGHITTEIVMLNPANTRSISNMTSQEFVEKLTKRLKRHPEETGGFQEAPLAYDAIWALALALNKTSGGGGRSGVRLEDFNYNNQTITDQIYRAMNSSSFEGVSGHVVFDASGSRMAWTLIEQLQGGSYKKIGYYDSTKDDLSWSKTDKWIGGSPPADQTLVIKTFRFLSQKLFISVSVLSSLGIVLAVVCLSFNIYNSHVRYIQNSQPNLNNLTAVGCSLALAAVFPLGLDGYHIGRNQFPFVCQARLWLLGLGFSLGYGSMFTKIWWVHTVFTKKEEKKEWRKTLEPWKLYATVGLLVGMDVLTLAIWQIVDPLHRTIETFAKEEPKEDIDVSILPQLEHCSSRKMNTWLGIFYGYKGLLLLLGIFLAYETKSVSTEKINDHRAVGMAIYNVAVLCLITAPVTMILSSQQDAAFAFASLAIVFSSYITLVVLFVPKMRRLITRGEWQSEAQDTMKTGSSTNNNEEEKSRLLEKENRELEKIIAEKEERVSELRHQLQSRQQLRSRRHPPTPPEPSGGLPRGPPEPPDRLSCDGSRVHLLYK

[9] = molecular target: T3, Muscarinic acetylcholine receptor M4 (Homo sapiens, UniProt P08173)
T3 sequence (P08173 whole entry): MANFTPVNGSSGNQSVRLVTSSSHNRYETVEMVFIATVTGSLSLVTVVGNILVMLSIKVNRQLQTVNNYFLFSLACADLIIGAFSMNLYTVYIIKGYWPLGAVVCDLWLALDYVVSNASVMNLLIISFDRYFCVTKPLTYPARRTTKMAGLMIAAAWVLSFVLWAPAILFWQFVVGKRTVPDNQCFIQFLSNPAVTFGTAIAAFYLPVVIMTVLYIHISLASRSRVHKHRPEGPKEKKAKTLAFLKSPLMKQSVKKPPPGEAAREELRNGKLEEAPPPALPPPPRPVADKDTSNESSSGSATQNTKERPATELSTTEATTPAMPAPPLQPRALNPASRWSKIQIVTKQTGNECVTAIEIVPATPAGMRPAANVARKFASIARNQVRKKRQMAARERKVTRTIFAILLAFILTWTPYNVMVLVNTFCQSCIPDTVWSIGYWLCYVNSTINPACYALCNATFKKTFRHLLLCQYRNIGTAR

[10] = molecular target: D(1B) dopamine receptor (Homo sapiens, UniProt P21918)
D(1B) dopamine receptor, sequence (P21918 whole entry): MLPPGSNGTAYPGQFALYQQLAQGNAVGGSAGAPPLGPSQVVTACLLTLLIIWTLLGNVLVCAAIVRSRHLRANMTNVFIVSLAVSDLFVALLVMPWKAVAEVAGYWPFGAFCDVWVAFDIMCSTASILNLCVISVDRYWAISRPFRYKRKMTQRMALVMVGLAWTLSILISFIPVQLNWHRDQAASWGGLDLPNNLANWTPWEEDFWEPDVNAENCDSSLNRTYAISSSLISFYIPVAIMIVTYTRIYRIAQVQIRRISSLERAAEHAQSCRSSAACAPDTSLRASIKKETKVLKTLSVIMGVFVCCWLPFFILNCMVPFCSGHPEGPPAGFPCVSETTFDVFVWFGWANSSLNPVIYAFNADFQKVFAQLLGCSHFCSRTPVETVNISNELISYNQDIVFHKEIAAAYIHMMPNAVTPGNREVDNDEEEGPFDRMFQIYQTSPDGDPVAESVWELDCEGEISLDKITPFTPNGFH

[11] = molecular target: 5-hydroxytryptamine receptor 7 (Homo sapiens, UniProt P34969)
5-hydroxytryptamine receptor 7, sequence (P34969 whole entry): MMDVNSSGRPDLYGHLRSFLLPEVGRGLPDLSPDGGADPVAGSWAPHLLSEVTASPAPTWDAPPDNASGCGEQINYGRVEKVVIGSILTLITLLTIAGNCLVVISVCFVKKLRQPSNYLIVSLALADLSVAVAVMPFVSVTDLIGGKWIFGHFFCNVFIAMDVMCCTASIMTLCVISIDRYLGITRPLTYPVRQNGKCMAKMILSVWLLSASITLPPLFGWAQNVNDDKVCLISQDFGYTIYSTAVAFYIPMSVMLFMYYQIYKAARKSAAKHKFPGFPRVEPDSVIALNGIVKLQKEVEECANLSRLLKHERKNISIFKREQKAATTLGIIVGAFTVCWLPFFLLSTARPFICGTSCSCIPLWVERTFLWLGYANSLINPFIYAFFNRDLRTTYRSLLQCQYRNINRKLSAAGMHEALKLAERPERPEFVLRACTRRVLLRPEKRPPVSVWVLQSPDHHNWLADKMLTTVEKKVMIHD

[12] = molecular target: Cannabinoid receptor 1 (Homo sapiens, UniProt P21554); assay type: functional
Cannabinoid receptor 1, sequence (P21554 whole entry): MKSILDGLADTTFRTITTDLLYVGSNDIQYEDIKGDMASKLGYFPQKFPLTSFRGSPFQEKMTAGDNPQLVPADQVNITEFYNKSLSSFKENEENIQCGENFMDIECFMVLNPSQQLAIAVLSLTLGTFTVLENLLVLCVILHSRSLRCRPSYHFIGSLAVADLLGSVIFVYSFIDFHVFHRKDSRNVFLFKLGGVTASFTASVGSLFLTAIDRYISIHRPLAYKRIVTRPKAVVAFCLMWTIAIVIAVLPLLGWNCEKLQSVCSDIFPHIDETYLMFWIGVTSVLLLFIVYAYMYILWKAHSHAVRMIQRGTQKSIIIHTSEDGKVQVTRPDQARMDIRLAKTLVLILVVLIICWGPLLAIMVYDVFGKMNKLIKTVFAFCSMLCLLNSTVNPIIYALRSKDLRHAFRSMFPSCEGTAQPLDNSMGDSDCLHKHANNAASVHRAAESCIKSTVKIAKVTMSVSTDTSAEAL

[13] = molecular target: T4, Glucocorticoid receptor (Homo sapiens, UniProt P04150); assay type: functional
T4 sequence (P04150 whole entry): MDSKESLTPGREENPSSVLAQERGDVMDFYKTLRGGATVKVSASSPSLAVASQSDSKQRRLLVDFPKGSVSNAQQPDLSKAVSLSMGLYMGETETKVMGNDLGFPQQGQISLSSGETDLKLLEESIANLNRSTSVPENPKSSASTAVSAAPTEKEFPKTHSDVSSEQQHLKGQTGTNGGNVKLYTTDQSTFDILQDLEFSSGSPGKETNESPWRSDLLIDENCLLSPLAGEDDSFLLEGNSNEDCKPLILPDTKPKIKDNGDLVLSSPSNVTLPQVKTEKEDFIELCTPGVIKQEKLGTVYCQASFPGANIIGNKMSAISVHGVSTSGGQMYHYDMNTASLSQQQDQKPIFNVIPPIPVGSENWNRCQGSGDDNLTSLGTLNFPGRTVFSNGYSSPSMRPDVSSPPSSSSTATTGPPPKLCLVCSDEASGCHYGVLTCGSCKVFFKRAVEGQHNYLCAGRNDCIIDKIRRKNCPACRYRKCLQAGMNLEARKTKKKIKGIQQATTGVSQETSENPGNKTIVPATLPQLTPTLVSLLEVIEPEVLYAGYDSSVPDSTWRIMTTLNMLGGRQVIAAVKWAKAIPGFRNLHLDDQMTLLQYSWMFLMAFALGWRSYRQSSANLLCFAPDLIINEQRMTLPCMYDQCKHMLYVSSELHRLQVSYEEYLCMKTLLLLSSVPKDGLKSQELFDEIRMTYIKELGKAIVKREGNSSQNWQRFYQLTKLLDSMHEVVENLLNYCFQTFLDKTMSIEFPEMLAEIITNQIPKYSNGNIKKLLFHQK
Also: assay procedure not described here.

Beta-1 adrenergic receptor, sequence (P08588 whole entry): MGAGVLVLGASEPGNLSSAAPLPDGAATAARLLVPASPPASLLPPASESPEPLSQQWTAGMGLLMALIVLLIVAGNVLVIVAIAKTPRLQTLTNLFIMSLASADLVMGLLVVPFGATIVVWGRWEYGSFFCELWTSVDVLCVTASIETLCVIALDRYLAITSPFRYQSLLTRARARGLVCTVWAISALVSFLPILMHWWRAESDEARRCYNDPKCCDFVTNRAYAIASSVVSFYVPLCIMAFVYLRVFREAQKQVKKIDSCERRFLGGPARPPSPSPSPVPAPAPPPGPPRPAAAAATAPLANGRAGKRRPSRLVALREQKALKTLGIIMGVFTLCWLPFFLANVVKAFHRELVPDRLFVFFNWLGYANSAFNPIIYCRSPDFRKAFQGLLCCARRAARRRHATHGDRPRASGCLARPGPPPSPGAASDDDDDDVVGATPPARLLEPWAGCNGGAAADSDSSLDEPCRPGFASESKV

CN1CCCN=C1/C=C/c1cccc(O)c1 [OXANTEL]
AC50 [1]: > 30 µM

COC(=O)c1ccc2c(c1)NC(=O)/C2=C(\Nc1ccc(N(C)C(=O)CN2CCN(C)CC2)cc1)c1ccccc1 [NINTEDANIB]
AC50 [2]: > 30 µM
AC50 [3]: 4.8 µM

O=C(O)c1nn(Cc2ccc(Cl)cc2Cl)c2ccccc12 [LONIDAMINE]
AC50 [2]: > 30 µM
AC50 [3]: > 30 µM

O=C(O[C@H]1C[N+]2(CCCOc3ccccc3)CCC1CC2)C(O)(c1cccs1)c1cccs1 [ACLIDINIUM BROMIDE]
AC50 [4]: 0.497 µM
AC50 [5]: > 10 µM
AC50 [6]: > 10 µM
AC50 [7]: > 10 µM

CCCCCCCC(=O)CC[C@@H]1[C@@H](C/C=C\CCCC(=O)O)[C@@H](O)C[C@H]1O [UNOPROSTONE]
AC50 [2]: > 30 µM
AC50 [3]: > 30 µM

C=C(c1ccccc1OCc1cccc(Cl)c1)n1ccnc1 [CROCONAZOLE]
AC50 [6]: 1.11 µM

Cc1ccc(S(=O)(=O)NC(=O)N[C@H]2[C@H]3CC[C@@](C)([C@H]2O)C3(C)C)cc1 [GLIBORNURIDE]
AC50 [1]: > 30 µM

CC1NCCOC1c1ccccc1 (stereo unspecified) [PHENMETRAZINE]
AC50 [6]: > 10 µM

CC(NC(C)(C)C)C(=O)c1cccc(Cl)c1 (stereo unspecified) [BUPROPION]
AC50 [8]: > 10 µM
AC50 [9]: > 10 µM
AC50 [10]: > 10 µM
AC50 [4]: > 10 µM
AC50 [11]: > 10 µM
AC50 [5]: > 10 µM
AC50 [12]: > 10 µM

CC1=C(C(=O)O)N2C(=O)[C@@H](NC(=O)[C@H](N)C3=CCC=CC3)[C@H]2SC1 [CEPHRADINE]
AC50 [2]: > 30 µM
AC50 [3]: > 30 µM

CCN(CC)CCCN(c1ccccc1)C1Cc2ccccc2C1 [APRINDINE]
AC50 [2]: > 30 µM
AC50 [3]: > 30 µM

Cc1nnc2n1-c1ccc(Cl)cc1C(c1ccccc1)=NC2 [ALPRAZOLAM]
AC50 [4]: > 10 µM
AC50 [5]: > 10 µM
AC50 [7]: > 10 µM

Oc1cc(O)c2c(c1)O[C@H](c1ccc(O)c(O)c1)[C@@H](O)C2 [CIANIDANOL]
AC50 [6]: > 10 µM

CC(=O)N1CCN(c2ccc(OCC3COC(Cn4ccnc4)(c4ccc(Cl)cc4Cl)O3)cc2)CC1 (stereo unspecified) [KETOCONAZOLE]
AC50 [13]: > 30 µM

CC(=O)OCC(=O)[C@@]1(O)CC[C@H]2[C@@H]3CCC4=CC(=O)CC[C@]4(C)[C@@]3(F)[C@@H](O)C[C@@]21C [FLUDROCORTISONE ACETATE]
AC50 [1]: > 30 µM

CN1C2CCCC1CC(NC(=O)c1nn(C)c3ccccc13)C2 (stereo unspecified) [GRANISETRON]
AC50 [9]: > 10 µM
AC50 [10]: > 10 µM
AC50 [4]: > 10 µM
AC50 [11]: > 10 µM
AC50 [5]: > 10 µM
AC50 [12]: > 10 µM

CCOC(=O)C1=C(C)NC(C)=C(C(=O)OC)C1c1cccc(Cl)c1Cl (stereo unspecified) [FELODIPINE]
AC50 [4]: > 10 µM
AC50 [5]: > 10 µM

CC(C)(N)Cc1ccccc1 [PHENTERMINE]
AC50 [8]: > 10 µM
AC50 [6]: > 10 µM

CCCCCCOC(=O)NC(=N)c1ccc(NCc2nc3cc(C(=O)N(CCC(=O)OCC)c4ccccn4)ccc3n2C)cc1 [DABIGATRAN ETEXILATE]
AC50 [2]: > 30 µM
AC50 [13]: > 30 µM
AC50 [3]: > 30 µM

Cc1cnc(Nc2ccc(OCCN3CCCC3)cc2)nc1Nc1cccc(S(=O)(=O)NC(C)(C)C)c1 [FEDRATINIB]
AC50 [6]: 3.12 µM

CC(=O)OCC1=C(C(=O)O)N2C(=O)[C@@H](NC(=O)Cc3cccs3)[C@H]2SC1 [CEPHALOTHIN]
AC50 [2]: > 30 µM
AC50 [3]: > 30 µM

Cc1ccc(-c2ncc(Cl)cc2-c2ccc(S(C)(=O)=O)cc2)cn1 [ETORICOXIB]
AC50 [8]: > 10 µM
AC50 [9]: > 10 µM
AC50 [10]: > 10 µM
AC50 [4]: > 10 µM
AC50 [11]: > 10 µM
AC50 [5]: > 10 µM
AC50 [6]: > 10 µM
AC50 [12]: > 10 µM

CS(=O)(=O)NC(=O)CCC/C=C\C[C@H]1C(=O)C[C@@H](O)[C@@H]1/C=C/[C@@H](O)COc1ccccc1 [SULPROSTONE]
AC50 [2]: > 30 µM
AC50 [3]: > 30 µM

CCN(CC)CC(=O)Nc1c(C)cccc1C [LIDOCAINE]
AC50 [4]: > 10 µM

CCC(=O)O[C@H](CC(=O)O)C[N+](C)(C)C [LEVOCARNITINE PROPIONATE]
AC50 [2]: > 30 µM
AC50 [3]: > 30 µM

CCCCC[C@H](O)CC[C@@H]1[C@H]2Cc3cccc(OCC(=O)O)c3C[C@H]2C[C@H]1O [TREPROSTINIL]
AC50 [2]: > 30 µM
AC50 [3]: > 30 µM

COc1ccc2c3c1O[C@H]1C(=O)CC[C@H]4[C@@H](C2)N(C)CC[C@]314 [HYDROCODONE]
AC50 [4]: > 10 µM
AC50 [5]: > 10 µM
AC50 [6]: > 10 µM
AC50 [7]: > 10 µM

COc1ccc(-n2nc(C(N)=O)c3c2C(=O)N(c2ccc(N4CCCCC4=O)cc2)CC3)cc1 [APIXABAN]
AC50 [2]: > 30 µM
AC50 [13]: > 30 µM
AC50 [3]: > 30 µM

O=C1CN=C(c2ccccc2Cl)c2cc([N+](=O)[O-])ccc2N1 [CLONAZEPAM]
AC50 [4]: > 10 µM
AC50 [5]: > 10 µM
AC50 [7]: > 10 µM

CN1C(=O)CN=C(c2ccccc2F)c2cc([N+](=O)[O-])ccc21 [FLUNITRAZEPAM]
AC50 [4]: > 10 µM
AC50 [5]: > 10 µM
AC50 [6]: > 10 µM

COc1nc(C)nc(Cl)c1N=C1NCCN1 [MOXONIDINE]
AC50 [1]: > 30 µM
